Assay [1] concerns the target T1, GlunN1/GluN2A glutamate receptors (Homo sapiens, UniProt Q05586+Q12879).
T1 construct: expressed in transfected cells
Kind of assay: Whole-cell patch clamp of mammalian cells (Ionworks Barracuda), positive allosteric modulation (PAM) of NMDA receptor, 2A. Format: cell-based. The note with it: for Emax: HEK293, HEK293 cells; for Emax / Avg Emax 2A (%): % activation of current elicited with EC20 L-glutamate and 30 µM glycine; for Avg Emax 2A (%) / EC50: HEK293 cells; for EC50: co-application with EC20 L-glutamate and 30 µM glycine, 8-point concentration-response. The procedure: (§1) The measurements were perfomed using Ion Works Barracuda platform following this procedure: • Electrophysiological Procedures: • a) Intracellular solution (mM): 50 mM CsCl, 90 mM CsF, 2 mM MgCl2, 5 mM EGTA, 10 mM HEPES. Adjust to pH 7.2 with CsOH. • b) Extracellular solution, HB-PS (composition in mM): NaCl, 137; KCl, 1.0; CaCl2, 5; HEPES, 10; Glucose, 10; pH adjusted to 7.4 with NaOH (refrigerated until use). • c) Holding potential: -70 mV, potential during agonist/PAM application: -40 mV. • Recording procedure: • a) Extracellular buffer will be loaded into the PPC plate wells (11 µL per well). Cell suspension will be pipetted into the wells (9 µL per well) of the PPC planar electrode. • b) Whole-cell recording configuration will be established via patch perforation with membrane currents recorded by on-board patch clamp amplifiers. • c) Two recordings (scans) will be performed. First, during pre-application of test article alone (duration of pre-application - 5 min) and second, during test articles and agonist (EC20 L-glutamate and 30 µM glycine) co-application to detect positive modulatory effects of the test article.
(§2) Test Article Administration: The first pre-application will consist of the addition of 20 µL of 2X concentrated test article solution and, second, of 20 µL of 1X concentrated test article and agonist at 10 µL/s (2 second total application time).
(§3) PAM concentration-response data will be fitted to an equation of the form: % Activation = % L−glutamate EC20 + {(%MAX−%L−glutamateEC20)/[1+(([Test]/; EC50))^N]}, [formula] where [Test] will be the concentration of PAM (test article), EC50 will be the concentration of PAM producing half-maximal activation, N will be the Hill coefficient, % L-glutamate EC20 will be the percentage of the current Elicited with L-glutamate EC20, % MAX is the percentage of the current activated with the highest dose of PAM co-admitted with L-glutamate EC20 and % Activation will be the percentage of the current elicited with L-glutamate EC10-30 at each PAM concentration.
(§4) The maximal amplitude of the evoked currents are measured and defined as Peak Current Amplitude (PCA).
On the technique in general: Patch clamp records ionic current or voltage across a cell membrane.

The target of assay [2] is T2, GluN2B glutamate receptors (Homo sapiens, UniProt Q05586+Q13224).
T2 construct: expressed in transfected cells; host or cells: mammalian cells (line not described for GluN2B)
T2 sequence (Q13224 27-1484, other chains not shown): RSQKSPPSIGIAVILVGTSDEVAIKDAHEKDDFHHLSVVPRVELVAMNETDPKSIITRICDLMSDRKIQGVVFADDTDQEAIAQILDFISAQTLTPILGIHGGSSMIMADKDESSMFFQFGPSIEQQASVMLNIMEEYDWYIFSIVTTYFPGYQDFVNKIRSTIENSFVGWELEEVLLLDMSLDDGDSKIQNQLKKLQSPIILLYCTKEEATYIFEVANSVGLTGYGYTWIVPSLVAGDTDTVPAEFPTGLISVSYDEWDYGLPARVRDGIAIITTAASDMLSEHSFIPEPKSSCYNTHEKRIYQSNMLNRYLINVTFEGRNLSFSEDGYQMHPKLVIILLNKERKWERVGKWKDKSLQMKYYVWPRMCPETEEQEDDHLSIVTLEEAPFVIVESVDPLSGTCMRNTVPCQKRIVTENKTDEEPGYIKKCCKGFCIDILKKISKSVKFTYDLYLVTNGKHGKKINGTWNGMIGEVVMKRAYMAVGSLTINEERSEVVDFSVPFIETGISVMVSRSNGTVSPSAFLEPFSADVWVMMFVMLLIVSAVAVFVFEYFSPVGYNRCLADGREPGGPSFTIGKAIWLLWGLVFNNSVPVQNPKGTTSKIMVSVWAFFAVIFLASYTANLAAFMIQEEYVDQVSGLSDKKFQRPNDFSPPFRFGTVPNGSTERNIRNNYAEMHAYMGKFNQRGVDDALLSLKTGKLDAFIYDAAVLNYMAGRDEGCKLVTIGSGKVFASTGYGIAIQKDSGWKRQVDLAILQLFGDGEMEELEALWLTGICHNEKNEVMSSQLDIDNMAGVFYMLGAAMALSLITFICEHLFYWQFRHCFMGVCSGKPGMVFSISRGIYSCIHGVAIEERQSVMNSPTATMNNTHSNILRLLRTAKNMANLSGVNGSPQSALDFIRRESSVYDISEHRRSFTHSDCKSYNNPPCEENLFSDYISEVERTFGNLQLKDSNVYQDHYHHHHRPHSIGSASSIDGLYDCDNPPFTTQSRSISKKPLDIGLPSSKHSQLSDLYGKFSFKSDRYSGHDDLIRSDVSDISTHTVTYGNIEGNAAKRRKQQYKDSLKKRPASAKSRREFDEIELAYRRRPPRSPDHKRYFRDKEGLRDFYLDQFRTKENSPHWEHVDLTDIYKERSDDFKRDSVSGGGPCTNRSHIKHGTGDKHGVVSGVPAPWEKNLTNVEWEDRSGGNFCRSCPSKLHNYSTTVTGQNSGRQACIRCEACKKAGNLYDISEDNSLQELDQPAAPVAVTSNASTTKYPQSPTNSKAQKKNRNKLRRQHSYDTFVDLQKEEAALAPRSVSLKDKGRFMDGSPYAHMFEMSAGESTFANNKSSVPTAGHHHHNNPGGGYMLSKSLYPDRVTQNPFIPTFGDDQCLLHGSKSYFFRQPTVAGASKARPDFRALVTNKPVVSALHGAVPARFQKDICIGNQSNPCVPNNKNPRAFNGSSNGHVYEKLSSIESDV
Kind of assay: Whole-cell patch clamp of mammalian cells (Ionworks Barracuda), positive allosteric modulation (PAM) of NMDA receptor, 2B. It counts as cell-based. The note with it: for Emax / Avg Emax 2B (%): % activation of current elicited with EC20 L-glutamate and 30 µM glycine; for EC50: co-application with EC20 L-glutamate and 30 µM glycine, 8-point concentration-response. The protocol:
as §1, §2, §3, §4

The structures appear in SMILES notation.

T1 sequence (Q12879 23-1464, other chains not shown): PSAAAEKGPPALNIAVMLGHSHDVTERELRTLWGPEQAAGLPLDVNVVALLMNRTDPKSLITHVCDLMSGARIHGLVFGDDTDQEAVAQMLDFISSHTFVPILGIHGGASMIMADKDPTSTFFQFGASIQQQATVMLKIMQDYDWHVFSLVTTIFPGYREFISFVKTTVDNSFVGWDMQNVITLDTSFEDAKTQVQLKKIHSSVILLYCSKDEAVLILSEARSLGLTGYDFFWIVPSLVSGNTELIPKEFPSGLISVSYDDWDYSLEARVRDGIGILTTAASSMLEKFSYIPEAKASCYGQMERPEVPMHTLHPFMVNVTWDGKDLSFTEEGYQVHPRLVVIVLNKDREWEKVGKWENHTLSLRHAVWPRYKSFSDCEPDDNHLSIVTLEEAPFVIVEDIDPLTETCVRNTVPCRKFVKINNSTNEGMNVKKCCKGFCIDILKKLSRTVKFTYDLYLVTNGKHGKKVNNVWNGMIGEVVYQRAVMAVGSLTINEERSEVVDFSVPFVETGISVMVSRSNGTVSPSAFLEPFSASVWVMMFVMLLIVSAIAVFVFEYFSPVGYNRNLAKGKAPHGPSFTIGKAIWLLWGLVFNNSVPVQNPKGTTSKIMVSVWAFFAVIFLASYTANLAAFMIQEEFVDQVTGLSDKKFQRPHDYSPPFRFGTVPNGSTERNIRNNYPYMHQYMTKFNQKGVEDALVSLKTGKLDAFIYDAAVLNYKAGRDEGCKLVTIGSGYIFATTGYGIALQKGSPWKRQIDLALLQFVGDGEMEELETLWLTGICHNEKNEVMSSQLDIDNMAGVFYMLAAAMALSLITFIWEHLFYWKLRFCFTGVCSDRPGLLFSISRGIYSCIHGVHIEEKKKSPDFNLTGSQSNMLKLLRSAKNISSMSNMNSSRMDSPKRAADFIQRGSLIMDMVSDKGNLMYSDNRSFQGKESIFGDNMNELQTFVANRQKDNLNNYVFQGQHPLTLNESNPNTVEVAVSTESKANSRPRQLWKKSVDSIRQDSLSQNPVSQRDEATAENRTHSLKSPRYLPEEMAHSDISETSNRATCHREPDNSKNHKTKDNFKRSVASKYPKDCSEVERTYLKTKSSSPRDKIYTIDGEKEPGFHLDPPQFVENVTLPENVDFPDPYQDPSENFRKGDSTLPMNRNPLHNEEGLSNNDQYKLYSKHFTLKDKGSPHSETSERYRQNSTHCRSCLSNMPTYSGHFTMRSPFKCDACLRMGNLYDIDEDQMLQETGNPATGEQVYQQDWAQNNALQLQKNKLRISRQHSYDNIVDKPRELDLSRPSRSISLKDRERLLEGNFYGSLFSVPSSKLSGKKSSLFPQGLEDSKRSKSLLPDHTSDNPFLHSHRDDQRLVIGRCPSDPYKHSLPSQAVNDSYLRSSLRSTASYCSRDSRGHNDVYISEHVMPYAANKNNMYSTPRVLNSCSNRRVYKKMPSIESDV

In general, Emax refers to the size of the effect at its maximum, as opposed to the concentration needed. In the case of `CCC1(O)CCC2(C)C(=CCC3C2CCC2(C)C(C(C)CCC(O)c4ccccc4F)CCC32)C1` (single isomer, unassigned) [Compound 7281], the figures for the Emax in assay [1] and in assay [2] were 98.1% and 126%, respectively.

As to `CCC1(O)CCC2C(=CCC3C2CCC2(C)C(C(C)CCC4(O)CCOC4)CCC32)C1` (single isomer, unassigned) [Compound 8602], the Emax was 272% in assay [1] and 262% in assay [2].

For the molecule `CC(C)[C@@H](O)CC[C@@H](C)[C@H]1CC[C@H]2[C@@H]3CC=C4C[C@](O)(C(F)(F)F)CC[C@]4(C)[C@H]3CC[C@]12C` [Compound 1-A], the Emax amounted to 275% in assay [1] and 250% in assay [2].

Take `CC(C)[C@H](O)CC[C@@H](C)[C@H]1CC[C@H]2[C@@H]3CC=C4C[C@](O)(C(F)(F)F)CC[C@]4(C)[C@H]3CC[C@]12C` [Compound 1-B]: the Emax in assay [1] amounted to 262%; in assay [2] it was 285%.

What is called EC50 is the midpoint of the concentration-response curve. Regarding `CC(C)[C@@H](O)CC[C@@H](C)[C@H]1CC[C@H]2[C@@H]3CC[C@H]4C[C@@](C)(O)CC[C@@H]4[C@H]3CC[C@]12C` [Compound 1A75], in assay [1], the “Avg Emax 2A (%)” value is on record as 457.2% and the concentration for a half-maximal effect (EC50) was 671 nM. In assay [2], the “Avg Emax 2B (%)” value turned out to be 308.0% and the EC50 amounted to 440 nM.

Regarding `CC(C)[C@H](O)CC[C@@H](C)[C@H]1CC[C@H]2[C@@H]3CC[C@H]4C[C@@](C)(O)CC[C@@H]4[C@H]3CC[C@]12C` [Compound 1B75], in assay [1], the “Avg Emax 2A (%)” value is on record as 278.8% and a half-maximal response (EC50) required 165 nM. In assay [2], the “Avg Emax 2B (%)” value was found to be 233.1% and the EC50 was 183 nM.

For `C[C@H](O)CC[C@@H](C)[C@H]1CC[C@H]2[C@@H]3CC[C@H]4C[C@](O)(C(F)(F)F)CC[C@]4(C)[C@H]3CC[C@]12C` [Compound 6], the maximal effect (Emax) is 137% in assay [1] and 163% in assay [2].

As for `C[C@H](CCC1(O)CCC(F)(F)CC1)[C@H]1CC[C@H]2[C@@H]3CC[C@H]4C[C@](O)(C(F)(F)F)CC[C@]4(C)[C@H]3CC[C@]12C` [Compound 8], the Emax in assay [1] was 402%; in assay [2], 322%.

Turning to `C[C@H](CCC1(O)CCOC1)[C@H]1CC[C@H]2[C@@H]3CC=C4C[C@](O)(C(F)(F)F)CC[C@]4(C)[C@H]3CC[C@]12C` (some centres unmarked) [Compound 10], the Emax in assay [1] was 632%; in assay [2], 362%.

As for `C[C@H](CCC1(O)CCOCC1)[C@H]1CC[C@H]2[C@@H]3CC[C@H]4C[C@](O)(C(F)(F)F)CC[C@]4(C)[C@H]3CC[C@]12C` [Compound 11], in assay [1], the “Avg Emax 2A (%)” value is reported as 151.2% and a half-maximal response (EC50) required 117 nM. Moreover, in assay [2], the “Avg Emax 2B (%)” value is 157.4% and the EC50 came to 104 nM.

Regarding `C[C@H](CCC[C@@H](C)O)[C@H]1CC[C@H]2[C@@H]3CC[C@H]4C[C@](O)(C(F)(F)F)CC[C@]4(C)[C@H]3CC[C@]12C` [Compound 112], in assay [1], the “Avg Emax 2A (%)” value is listed as 92.6% and the concentration giving a half-maximal response (EC50) turned out to be 480 nM. Further, in assay [2], the “Avg Emax 2B (%)” value is reported as 150.8% and the EC50 was 478 nM.

In the case of `C[C@H](CCC(O)(c1ccccc1)C(F)(F)F)[C@H]1CC[C@H]2[C@@H]3CC=C4C[C@@](C)(O)CC[C@]4(C)[C@H]3CC[C@]12C` (some centres unmarked) [Compound 559], in assay [1], the “Avg Emax 2A (%)” value was 204.3% and the EC50 amounted to 1570 nM. For the same molecule, in assay [2], the “Avg Emax 2B (%)” value is 373.2% and the EC50 is 1560 nM.

Take `C[C@H](CCC(O)Cc1ccccc1)[C@H]1CC[C@H]2[C@@H]3CC=C4C[C@@](C)(O)CC[C@]4(C)[C@H]3CC[C@]12C` (some centres unmarked) [Compound 660]: in assay [1], the “Avg Emax 2A (%)” value is reported as 195.2% and the EC50 turned out to be 701 nM. Also, in assay [2], the “Avg Emax 2B (%)” value worked out at 281.1% and the EC50 was 517 nM.

As for `C[C@H](O)CCC[C@@H](C)[C@H]1CC[C@H]2[C@@H]3CC[C@H]4C[C@](O)(C(F)(F)F)CC[C@]4(C)[C@H]3CC[C@]12C` [Compound 2113], in assay [1], the “Avg Emax 2A (%)” value stood at 402.7% and the EC50 is 380 nM. Moreover, in assay [2], the “Avg Emax 2B (%)” value is 285.0% and a half-maximal response (EC50) required 413 nM.

Regarding `C[C@H](CC[C@H](O)C(C)(C)C)[C@H]1CC[C@H]2[C@@H]3CC[C@H]4C[C@](O)(C(F)(F)F)CC[C@]4(C)[C@H]3CC[C@]12C` [Compound 2184], the values for the Emax in assay [1] and in assay [2] were 234% and 258%, respectively.

In the case of `C[C@H](CCC1(O)CCC(F)(F)CC1)[C@H]1CC[C@H]2[C@@H]3CC=C4C[C@](O)(C(F)(F)F)CC[C@]4(C)[C@H]3CC[C@]12C` [Compound 2392], the maximal effect (Emax) was found to be 230% in assay [1] and 166% in assay [2].

With `C[C@H](CCC(O)C(C)(C)C)[C@H]1CC[C@H]2[C@@H]3CC=C4C[C@](O)(C(F)(F)F)CC[C@]4(C)[C@H]3CC[C@]12C` (some centres unmarked) [Compound 2500], the Emax in assay [1] is 303%; in assay [2], 300%.

With `C[C@H](CC[C@](C)(O)C(F)(F)F)[C@H]1CC[C@H]2[C@@H]3CC=C4C[C@](O)(C(F)(F)F)CC[C@]4(C)[C@H]3CC[C@]12C` [Compound 3035], the Emax amounted to 323% in assay [1] and 611% in assay [2].

On to `C[C@H](CC[C@@H](O)C(F)(F)F)[C@H]1CC[C@H]2[C@@H]3CC=C4C[C@](O)(C(F)(F)F)CC[C@]4(C)[C@H]3CC[C@]12C` [Compound 3149], for which the results for the maximal effect (Emax) in assay [1] and in assay [2] were 292% and 472%, respectively.

On to `C[C@H](CC[C@@H](O)C(C)(C)C)[C@H]1CC[C@H]2[C@@H]3CC=C4C[C@](O)(C(F)(F)F)CC[C@]4(C)[C@H]3CC[C@]12C` [Compound 3382], for which the Emax in assay [1] turned out to be 309%; in assay [2], 461%.

With `C[C@H](CC[C@]1(O)CCOC1)[C@H]1CC[C@H]2[C@@H]3CC=C4C[C@](O)(C(F)(F)F)CC[C@]4(C)[C@H]3CC[C@]12C` [Compound 3496], the Emax came to 319% in assay [1] and 369% in assay [2].

With `C[C@H](CC[C@H](O)C(C)(C)C)[C@H]1CC[C@H]2[C@@H]3CC=C4C[C@](O)(C(F)(F)F)CC[C@]4(C)[C@H]3CC[C@]12C` [Compound 3507], the Emax in assay [1] was found to be 166%; in assay [2] it was 241%.

As to `C[C@H](CC[C@H](O)C(C)(C)C)[C@H]1CC[C@H]2[C@@H]3CC[C@@H]4C[C@](O)(C(F)(F)F)CC[C@]4(C)[C@H]3CC[C@]12C` [Compound 3634], the Emax in assay [1] is 221%; in assay [2], 379%.

Regarding `C[C@H](CC[C@@H](O)C(C)(C)C)[C@H]1CC[C@H]2[C@@H]3CC[C@@H]4C[C@](O)(C(F)(F)F)CC[C@]4(C)[C@H]3CC[C@]12C` [Compound 3788], the Emax in assay [1] was determined as 229%; in assay [2], 410%.

Turning to `C[C@H](CC[C@]1(O)CC[C@H](C)CC1)[C@H]1CC[C@H]2[C@@H]3CC[C@H]4C[C@](O)(C(F)(F)F)CC[C@]4(C)[C@H]3CC[C@]12C` [Compound 3877], the Emax in assay [1] stood at 42.4%; in assay [2] it was 71.1%.

In the case of `C[C@H](CCC1(O)CCCCCC1)[C@H]1CC[C@H]2[C@@H]3CC[C@H]4C[C@](O)(C(F)(F)F)CC[C@]4(C)[C@H]3CC[C@]12C` [Compound 3983], the Emax amounted to 176% in assay [1] and 300% in assay [2].

In turn, `CC[C@]1(O)CC[C@@]2(C)[C@@H](CC[C@@H]3[C@@H]2CC[C@]2(C)[C@@H]([C@H](C)CC[C@@H](O)c4ccccn4)CC[C@@H]32)C1` [Compound 7030] returned an EC50 in assay [1] of over 10000 nM.

For the molecule `CC[C@]1(O)CC[C@@]2(C)[C@@H](CC[C@@H]3[C@@H]2CC[C@]2(C)[C@@H]([C@H](C)CC[C@H](O)c4ccccn4)CC[C@@H]32)C1` [Compound 7032], the EC50 in assay [1] is over 10000 nM.

Source of the values: EP3529257B1, “[…] METHODS OF USE THEREOF” (Sage Therapeutics, Inc., priority 2016, dated 2018).
